This is an account of results in EP2710378B1, “METHOD TO PROGNOSE VIRAL INFECTION BY MEASURING T CELL RESPONSE OR AUTO-ANTIBODIES TO APOPTOTIC EPITOPES” (Università degli Studi di Roma "La Sapienza", priority 2011, dated 2012).

In the assay the test system is CD8+pentamer+ TEM cells. The experiment in a line: Cross-presentation of apoptotic cells. It counts as cell-based, patients with acute HCV infection. The following applies: DCs pulsed with apoptotic T cells previously treated with the inhibitor; five independent patients. Here is the method:
[…]. Then, cells were induced to apoptosis by incubation with 500 ng/ml anti-Fas (anti-CD95 mAb [clone CH11], Upstate Biotechnology) for at least 6 h. Apoptotic cells were determined by staining with Annexin- V (ApoAlert Apoptosis Kit, Clontech Laboratories Inc), PI (Sigma-Aldrich) and flow-cytometry analysis. PBMCs were double-stained with pentamers and mAb to CD8 and cultured with iDCs that had been pulsed or not with apoptotic cloned T cells. After 6-8 h, cells were tested for their capacity to produce IL-17 and IFN-γ by intracellular cytokine staining (ICS) as described above. Cells were washed, acquired with a FACSCanto flow cytometer and analyzed with FACSDiva analysis software (Becton Dickinson) or FlowJo software (Treestar).
It is for interest the finding that fresh apoptotic epitope-specific CD8^+pentamer^+ TEM cells promptly produced IFN-γ or IL-17 ex vivo within a few hours of contact with DCs that had been pulsed with apoptotic T cells (i.e., through the cross-presentation mechanism) (Figure 25A,B). […] This phenomenon was confirmed in five independent patients (Figure 25B). The frequencies of apoptotic epitope-specific CD8^+ T cells (but not those of viral epitope-specific CD8^+ T cells [data not shown]) correlated with the number of circulating apoptotic T cells (Figure 25C). […]

Take `COC(=O)CC[C@H](NC(=O)[C@H](CC(=O)OC)NC(=O)OCc1ccccc1)C(=O)N[C@H](C(=O)N[C@@H](CC(=O)OC)C(=O)CF)C(C)C` [C3I, Z-DEVD-FMK]: the “IFN-γ or IL-17 production” value was “marked decrease”.
